Reference: ChEMBL document CHEMBL4616633, “Citral Inhibits the Inflammatory Response and Hyperalgesia in Mice: The Role of TLR4, TLR2/Dectin-1, and CB2 Cannabinoid Receptor/ATP-Sensitive K+ Channel Pathways” (J Nat Prod, 2020)
Active and inactive are the calls of the source. The rule behind the calls is not given here.

Key:
Mus musculus [1] = assay: Inhibition of carrageenan-induced thermal allodynia in Swiss mouse at 1 mg/kg, ip pretreated for 30 mins followed by carrageenan-stimulation and measured after 6 hrs; type: functional, organism-based
Mus musculus [2] = assay: Inhibition of carrageenan-induced paw edema in Swiss mouse at 1 mg/kg, ip pretreated for 30 mins followed by carrageenan-stimulation and measured after 6 hrs; type: functional, organism-based
Mus musculus [3] = assay: Inhibition of carrageenan-induced paw edema in Swiss mouse at 50 mg/kg, po pretreated for 1 hr followed by carrageenan-stimulation and measured after 6 hrs relative to control; type: functional
[4] = Toxicity in Swiss mouse assessed as effect on triglycerides level weight at 5 to 2000 mg/kg, po after 14 days; type: organism-based; conditions: in vivo, 336 h
Mus musculus [5] = assay: Inhibition of carrageenan-induced paw edema in Swiss mouse at 100 mg/kg, po pretreated for 1 hr followed by carrageenan-stimulation and measured after 6 hrs relative to control; type: functional
[6] = Toxicity in Swiss mouse assessed as effect on total cholesterol level weight at 5 to 2000 mg/kg, po after 14 days; type: organism-based; conditions: in vivo, 336 h
Mus musculus [7] = assay: Inhibition of croton oil-induced ear edema in mouse at 0.1 mg/ear administered topically pretreated for 1 hr followed by croton oil-stimulation and measured after 6 hrs relative to control; type: functional
[8] = Toxicity in Swiss mouse assessed as effect on touch sensitivity at 2000 mg/kg, po after 14 days; type: organism-based; conditions: in vivo, 336 h
[9] = Toxicity in Swiss mouse assessed as food consumption at 2000 mg/kg, po after 14 days (reference value: 27.3%); type: organism-based; conditions: in vivo, 336 h
[10] = Toxicity in Swiss mouse assessed as effect on total protein level weight at 5 to 2000 mg/kg, po after 14 days; type: organism-based; conditions: in vivo, 336 h
[11] = Toxicity in Swiss mouse assessed as effect on ALP level weight at 5 to 2000 mg/kg, po after 14 days; type: organism-based; conditions: in vivo, 336 h
Mus musculus [12] = assay: Inhibition of carrageenan-induced paw edema in Swiss mouse at 300 mg/kg, po pretreated for 1 hr followed by carrageenan-stimulation and measured after 6 hrs relative to control; type: functional
[13] = Psychoactive effect in Swiss mouse assessed as catalepsy effect at 50 mg/kg, po and measured for 6 hrs; type: ADME, organism-based; conditions: in vivo
[14] = Toxicity in Swiss mouse assessed as effect on kidney weight at 5 to 2000 mg/kg, po after 14 days; type: organism-based; conditions: in vivo, 336 h
[15] = Toxicity in Swiss mouse assessed as increase in weight gain at 5 to 2000 mg/kg, po after 14 days; type: organism-based; conditions: in vivo, 336 h
[16] = Toxicity in Swiss mouse assessed as effect on blood urea nitrogen level weight at 5 to 2000 mg/kg, po after 14 days; type: organism-based; conditions: in vivo, 336 h
[17] = Psychoactive effect in Swiss mouse assessed as hypothermic effects at 50 mg/kg, po and measured for 6 hrs by thermometric method; type: ADME, organism-based; conditions: in vivo
Mus musculus [18] = assay: Inhibition of carrageenan-induced thermal allodynia in Swiss mouse at 100 mg/kg, po pretreated for 1 hr followed by carrageenan-stimulation and measured after 6 hrs relative to control; type: functional
[19] = Toxicity in Swiss mouse assessed as water consumption at 5 mg/kg, po after 14 days (reference value: 50.5%); type: organism-based; conditions: in vivo, 336 h
[20] = Toxicity in Swiss mouse assessed as effect on heart weight at 5 to 2000 mg/kg, po after 14 days; type: organism-based; conditions: in vivo, 336 h
Mus musculus [21] = assay: Inhibition of carrageenan-induced thermal allodynia in Swiss mouse at 50 mg/kg, po pretreated for 30 mins followed by carrageenan-stimulation and co-treated with CB1R antagonist AM281 and measured after 6 hrs; type: functional, organism-based
[22] = Toxicity in Swiss mouse assessed as effect on AST level weight at 5 to 2000 mg/kg, po after 14 days; type: organism-based; conditions: in vivo, 336 h
[23] = Toxicity in Swiss mouse assessed as effect on creatinine level weight at 5 to 2000 mg/kg, po after 14 days; type: organism-based; conditions: in vivo, 336 h
[24] = Psychoactive effect in Swiss mouse assessed as antinociceptive effect by measuring paw withdrawal latencies at 50 mg/kg, po and measured for 6 hrs; type: ADME, organism-based; conditions: in vivo
[25] = Toxicity in Swiss mouse assessed as food consumption at 300 mg/kg, po after 14 days (reference value: 27.3%); type: organism-based; conditions: in vivo, 336 h
[26] = Toxicity in Swiss mouse assessed as food consumption at 50 mg/kg, po after 14 days (reference value: 27.3%); type: organism-based; conditions: in vivo, 336 h
[27] = Toxicity in Swiss mouse assessed as water consumption at 300 mg/kg, po after 14 days (reference value: 50.5%); type: organism-based; conditions: in vivo, 336 h
[28] = Toxicity in Swiss mouse assessed as effect on uric acid level weight at 5 to 2000 mg/kg, po after 14 days; type: organism-based; conditions: in vivo, 336 h
[29] = Psychoactive effect in Swiss mouse assessed as reduction in locomotor activity by measuring change in distance travelled at 50 mg/kg, po and measured for 6 hrs; type: ADME, organism-based; conditions: in vivo
[30] = Toxicity in Swiss mouse assessed as water consumption at 50 mg/kg, po after 14 days (reference value: 50.5%); type: organism-based; conditions: in vivo, 336 h
[31] = Toxicity in Swiss mouse assessed as effect on lung weight at 5 to 2000 mg/kg, po after 14 days; type: organism-based; conditions: in vivo, 336 h
[32] = Toxicity in Swiss mouse assessed as effect on ALT level weight at 5 to 2000 mg/kg, po after 14 days; type: organism-based; conditions: in vivo, 336 h
[33] = Toxicity in Swiss mouse assessed as reduction in locomotion at 1000 mg/kg, po after 14 days; type: organism-based; conditions: in vivo, 336 h
Mus musculus [34] = assay: Inhibition of LPS-induced TLR4 pathway assessed as reduction in paw edema in Swiss mouse at 50 mg/kg, po pretreated for 1 hr followed by LPS-stimulation and measured after 48 hrs relative to control; type: functional
Mus musculus [35] = assay: Inhibition of carrageenan-induced thermal allodynia in Swiss mouse at 300 mg/kg, po pretreated for 1 hr followed by carrageenan-stimulation and measured after 6 hrs relative to control; type: functional
Mus musculus [36] = assay: Inhibition of zymosan-induced TLR2/Dectin-1 Signaling Pathway assessed as reduction in paw edema in Swiss mouse at 50 mg/kg, po pretreated for 1 hr followed by […] and measured after 48 hrs relative to control; type: functional
[37] = Toxicity in Swiss mouse assessed as food consumption at 1000 mg/kg, po after 14 days (reference value: 27.3%); type: organism-based; conditions: in vivo, 336 h
[38] = Toxicity in Swiss mouse assessed as water consumption at 1000 mg/kg, po after 14 days (reference value: 50.5%); type: organism-based; conditions: in vivo, 336 h
Mus musculus [39] = assay: Inhibition of carrageenan-induced paw edema in Swiss mouse at 50 mg/kg, po pretreated for 30 mins followed by carrageenan-stimulation and co-treated with CB1R antagonist AM281 and measured after 6 hrs; type: functional, organism-based
[40] = Toxicity in Swiss mouse assessed as effect on glucose level weight at 5 to 2000 mg/kg, po after 14 days; type: organism-based; conditions: in vivo, 336 h
Mus musculus [41] = assay: Inhibition of carrageenan-induced thermal allodynia in Swiss mouse at 50 mg/kg, po pretreated for 30 mins followed by carrageenan-stimulation and co-treated glibenclamide and measured after 6 hrs; type: functional, organism-based
[42] = Toxicity in Swiss mouse assessed as effect on liver weight at 5 to 2000 mg/kg, po after 14 days; type: organism-based; conditions: in vivo, 336 h
[43] = Toxicity in Swiss mouse assessed as mortality at 5 to 1000 mg/kg, po after 14 days; type: organism-based; conditions: in vivo, 336 h
Mus musculus [44] = assay: Inhibition of carrageenan-induced thermal allodynia in Swiss mouse at 50 mg/kg, po pretreated for 30 mins followed by carrageenan-stimulation and co-treated with CB2R antagonist AM630 and measured after 6 hrs; type: functional, organism-based
Mus musculus [45] = assay: Inhibition of carrageenan-induced paw edema in Swiss mouse at 50 mg/kg, po pretreated for 30 mins followed by carrageenan-stimulation and co-treated with CB2R antagonist AM630 and measured after 6 hrs; type: functional, organism-based
Mus musculus [46] = assay: Inhibition of croton oil-induced ear edema in mouse at 0.3 mg/ear administered topically pretreated for 1 hr followed by croton oil-stimulation and measured after 6 hrs relative to control; type: functional
[47] = Toxicity in Swiss mouse assessed as effect on respiratory movement at 1000 mg/kg, po after 14 days; type: organism-based; conditions: in vivo, 336 h
[48] = Toxicity in Swiss mouse assessed as effect on touch sensitivity at 1000 mg/kg, po after 14 days; type: organism-based; conditions: in vivo, 336 h
[49] = Toxicity in Swiss mouse assessed as water consumption at 2000 mg/kg, po after 14 days (reference value: 50.5%); type: organism-based; conditions: in vivo, 336 h
[50] = Toxicity in Swiss mouse assessed as food consumption at 5 mg/kg, po after 14 days (reference value: 27.3%); type: organism-based; conditions: in vivo, 336 h
Mus musculus [51] = assay: Inhibition of carrageenan-induced thermal allodynia in Swiss mouse at 50 mg/kg, po pretreated for 1 hr followed by carrageenan-stimulation and measured after 6 hrs relative to control; type: functional
Mus musculus [52] = assay: Inhibition of carrageenan-induced paw edema in Swiss mouse at 50 mg/kg, po pretreated for 30 mins followed by carrageenan-stimulation and co-treated with glibenclamide and measured after 6 hrs; type: functional, organism-based
[53] = Toxicity in Swiss mouse assessed as effect on paradoxical breathing at 2000 mg/kg, po after 14 days; type: organism-based; conditions: in vivo, 336 h
[54] = Toxicity in Swiss mouse assessed as reduction in locomotion at 2000 mg/kg, po after 14 days; type: organism-based; conditions: in vivo, 336 h

COc1ccc(C(=O)c2c(C)n(CCN3CCOCC3)c3cc(I)ccc23)cc1
inhibition (Mus musculus [1]): inactive
inhibition (Mus musculus [2]): inactive

CC(C)=CCCC(C)=CC=O (mixture of isomers)
inhibition in vivo at 50 mg/kg (Mus musculus [3]): 57%
Activity [4]: Non-Toxic
inhibition in vivo at 100 mg/kg (Mus musculus [5]): 70%
Activity [6]: Non-Toxic
inhibition (INH) (Mus musculus [7]): 22%
Activity [8]: Non-Toxic
Activity [9]: 8.8%
Activity [10]: Non-Toxic
Activity [11]: Non-Toxic
inhibition in vivo at 300 mg/kg (Mus musculus [12]): 66%
Activity [13]: Non-Toxic
Activity [14]: Non-Toxic
Activity [15]: Non-Toxic
Activity [16]: Non-Toxic
Activity [17]: Non-Toxic
inhibition in vivo at 100 mg/kg (Mus musculus [18]): 80%
Activity [19]: 44.4%
Activity [20]: Non-Toxic
inhibition (Mus musculus [21]): Active
Activity [22]: Non-Toxic
Activity [23]: Non-Toxic
Activity [24]: Non-Toxic
Activity [25]: 28.1%
Activity [26]: 21.4%
Activity [27]: 36%
Activity [28]: Non-Toxic
Activity [29]: Non-Toxic
Activity [30]: 37.5%
Activity [31]: Non-Toxic
Activity [32]: Non-Toxic
Activity [33]: Non-Toxic
inhibition in vivo at 50 mg/kg (Mus musculus [34]): 70%
inhibition in vivo at 300 mg/kg (Mus musculus [35]): 62%
inhibition in vivo at 50 mg/kg (Mus musculus [36]): 45%
Activity [37]: 28.1%
Activity [38]: 40%
inhibition (Mus musculus [39]): Active
Activity [40]: Non-Toxic
inhibition (Mus musculus [41]): inactive
Activity [42]: Non-Toxic
Activity [43]: Non-Toxic
inhibition (Mus musculus [44]): inactive
inhibition (Mus musculus [45]): inactive
inhibition (INH) (Mus musculus [46]): 83%
Activity [47]: Non-Toxic
Activity [48]: Non-Toxic
Activity [49]: 15.6%
Activity [50]: 31.2%
inhibition in vivo at 50 mg/kg (Mus musculus [51]): 62%
inhibition (Mus musculus [52]): inactive
Activity [53]: Non-Toxic
Activity [54]: Non-Toxic
